“And” between values parts separate entries of the source, which are not always exact repeats. Equal values may be shown once.
How the values were obtained:
[1] = Calcein loaded vesicle leakage (lysis) assay; details: 298 K, PBS buffer 5% EtOH
Protocol: To gauge the activity and selectivity of 1–5 and a–j against microbial membranes, a series of synthetic model vesicle systems were prepared, containing a variety of common bacterial membrane phospholipid headgroups: (i) phosphatidylglycerol (PG) only; (ii) phosphatidylethanolamine (PE) : PG 3 : 1 and; (iii) PE : PG 1 : 1.[50] Following our previous work in this area, we first quantified the ability of 1–5 and co-formulations a–j to lyse the aforementioned synthetic model phospholipid vesicle systems.[49] […] Here the fluorescent dye calcein was loaded into synthetic vesicles at a concentration where the dye self-quenches (70 mM). When the vesicle is lysed, the calcein is released to the extravesicular solution, effectively reducing calcein concentration to a point where the dye no longer undergoes self-quenching. Through comparison to a positive control experiment, in which 100% vesicle lysis was achieved through the addition of 2% X-100 Triton, the proportion of vesicles to undergo lysis in the presence or absence of SSA can be calculated. The data was then fitted to the Hill or linear equation to determine the effective concentration of SSA needed to lyse 50% of the vesicles present in solution (EC50) (Section S14, ESI ^†).[51] […]
(§1) Preparation of vesicles: All lipids were purchased as powder stocks from Avanti Polar Lipids. Lipid vesicles were prepared according to standard procedures. Each phospholipid (~ 20 mg) was dissolved in chloroform: methanol 3:1 (~ 10 mL) and the solvent was removed under reduced pressure. The thin film of dried lipid was further dried in vacuo overnight. Lipid films were resuspended in the desired buffer and subjected to 10 freeze-thaw cycles in liquid nitrogen and extruded 19 times through a 200 nm polycarbonate membrane.
Preparation of calcein loaded vesicles:2 Lipid films were resuspended in calcein dye (70 mg calcein, 865 µL deionized H2O, 135 µL NaOH (2 M), with NaOH added dropwise until calcein dissolved) and subjected to 10 freeze-thaw cycles in liquid nitrogen and extruded 19 times through a 200 nm polycarbonate membrane. The suspension was run down a size exclusion column packed with sephadex G-50 using 1 X PBS. The hydrodynamic dimeter of the lipids was monitored using an Anton Paar LitesizerTM 500 to ensure the separation of free and entrapped calcein. Phospholipid concentration was adjusted to 60 µM for vesicle leakage experiments.
Vesicle leakage assay: Black bottom 96-well plates were prepared by serially diluting desired SSA in a EtOH: H2O 1:19 solution across the plate, the appropriate lipid solution (100 µL, 60 µM) was added to each well to give a total well volume of 200 µL. A solution of 2 % Triton X-100 was used for a 100 % lysis control and a EtOH: H2O 1:19 solution was used as a 0 % lysis control. Fluorescent measurements were taken at 25 °C using an excitation value of 495 nm and an optimised gain of 800. Data were acquired in endpoint mode. […]
For fluorescent labelling, the desired vesicles were pre-incubated with DPH (10 µM) at 60 °C for 1 hour.
Membrane fluidity assay: Black bottom 96-well plates were prepared by serially diluting desired SSA in a EtOH: H2O 1:19 solution across the plate, the appropriate DPH labelled vesicles (100 µL, 60 µM) were added to each well to give a total well volume of 200 µL. FP measurements were taken at 25 °C using a 355 nm filter for excitation and a 430 m for emission. […]
Figure S168 – Average (n=3) […] readings of calcein loaded PE:PG 3:1 lipid vesicles (λem = 515 nm) following the addition of j at varying concentrations. Lysis value is triton (1 %). Blue = 1 minute, purple = 5 minutes, pink = 10 minutes, orange = 15 minutes, red = 20 minutes. Error = standard […]
Section S14: Determination of vesicle lysis EC50 values
Data was originally fitted to the Hill equation using origin software. If the fitting of these vesicle lysis data to the Hill equation failed then the data were fitted to a linear line of best fit to estimate EC50 […]
above 0.1 mM. […]

[2] = Membrane fluidity fluorescence polarization (DPH) assay; details: SSA 1.5 mM, HEPES buffer pH 7.4, 298 K, n = 3, error = SD
Text: Next, we sought to understand the effects of 1, 2, 4 and 5 and a, c, d, f, g, j on synthetic vesicle phospholipid membrane fluidity using a fluorescence polarization (FP) assay.[52] Here, the fluorescent reporter dye 1,6-diphenyl-1,3,5-hexatriene (DPH) is incorporated into the vesicles phospholipid bilayer. As membrane fluidity is increased, the DPH reporter dye moves more freely within the phospholipid bilayer environment, resulting in a decreased FP value. However, should the membrane become more rigid, the movement of the dye is decreased and the FP value increases. As 3 is intrinsically fluorescent and overlaps with the fluorescence excitation/emission properties of the DPH, this SSA and co-formulations incorporating this compound were not included. […]
as §1, with “membrane. […]” for “membrane.”
Preparation of DPH fluorescent labelled vesicles: Lipid films were resuspended in buffer (150 mM KCl, 10 mM HEPES, pH 7.4, 2 mM EGTA) and subjected to 10 freeze-thaw cycles in liquid nitrogen and extruded 20 times through a 200 nm polycarbonate membrane. For fluorescent labelling, the desired vesicles were pre-incubated with DPH (10 µM) at 60 °C for 1 hour.
Membrane fluidity assay: Black bottom 96-well plates were prepared by serially diluting desired SSA in a EtOH: H2O 1:19 solution across the plate, the appropriate DPH labelled vesicles (100 µL, 60 µM) were added to each well to give a total well volume of 200 µL. FP measurements were taken at 25 °C using a 355 nm filter for excitation and a […] for emission. The DPH labelled vesicles were set to a FP value of 100 mP. Data were acquired in endpoint mode. All experiments were repeated in triplicate to ensure experimental reproducibility.

[3] = PE:PG 1:1 vesicles, 1 min (Timepoint 1 in Table S14)
[4] = PE:PG 1:1 vesicles, 5 min (Timepoint 2 in Table S14)
[5] = PE:PG 1:1 vesicles, 10 min (Timepoint 3 in Table S14)
[6] = PE:PG 1:1 vesicles, 15 min (Timepoint 4 in Table S14)
[7] = PE:PG 1:1 vesicles, 20 min (Timepoint 5 in Table S14)
[8] = PE:PG 3:1 vesicles, 1 min (Timepoint 1 in Table S13)
[9] = PE:PG 3:1 vesicles, 5 min (Timepoint 2 in Table S13)
[10] = PE:PG 3:1 vesicles, 10 min (Timepoint 3 in Table S13)
[11] = PE:PG 3:1 vesicles, 15 min (Timepoint 4 in Table S13)
[12] = PE:PG 3:1 vesicles, 20 min (Timepoint 5 in Table S13)
[13] = PG vesicles, 1 min (Timepoint 1 in Table S12), total molar concentration
[14] = PG vesicles, 5 min (Timepoint 2 in Table S12)
[15] = PG vesicles, 10 min (Timepoint 3 in Table S12)
[16] = PG vesicles, 15 min (Timepoint 4 in Table S12)
[17] = PG vesicles, 20 min (Timepoint 5 in Table S12)
[18] = PE:PG 1:1 vesicles with DPH (10 μM)
[19] = PE:PG 3:1 vesicles with DPH (10 μM)

| SMILES | EC50 [1, 3] | EC50 [1, 4] | EC50 [1, 5] [mM] | EC50 [1, 6] [mM] | EC50 [1, 7] | EC50 [1, 8] [mM] | EC50 [1, 9] [mM] | EC50 [1, 10] [mM] | EC50 [1, 11] | EC50 [1, 12] | EC50 [1, 13] [mM] | EC50 [1, 14] [mM] | EC50 [1, 15] [mM] | EC50 [1, 16] [mM] | EC50 [1, 17] [mM] | Average FP values [2, 18] | Average FP values [2, 19] | Average FP values ([2]; PG vesicles with DPH (10 μM)) |
| --- | --- | --- | --- | --- | --- | --- | --- | --- | --- | --- | --- | --- | --- | --- | --- | --- | --- | --- |
| O=S(=O)(O)CCCNC(=S)Nc1ccc(C(F)(F)F)cc1 [SSA 1] | 0.055 mM and 0.0549 mM | 0.01 mM and 0.0095 mM | 0.0048 | 0.002 | 0.002 mM and 0.0015 mM | 0.0302 | 0.009 | 0.004 | 0.002 mM and 0.0022 mM | 0.002 mM and 0.0017 mM | 0.0677 | 0.032 | 0.0156 | 0.0062 | 0.0037 | 50 ± 1 | −9 ± 3 | 29 ± 1 |
| O=C(O)CNC(=S)Nc1ccc(C(F)(F)F)cc1 [SSA 2] | > 1.5 mM | 1.43 mM | 0.83 | 0.661 | 0.585 mM | > 1.5 | > 1.5 | > 1.5 | > 1.5 mM | 1.15 mM | > 1.5 | 1.14 | 0.727 | 0.563 | 0.49 | −1 ± 1 | −40 ± 0 | 11 ± 8 |
| Cc1ccc2nc(-c3ccc(NC(=O)NCS(=O)(=O)O)cc3)sc2c1 [SSA 3] | > 1.5 mM | > 1.5 mM | 1.33 | 0.953 | 0.829 mM | > 1.5 | > 1.5 | > 1.5 | > 1.5 mM | > 1.5 mM | 0.867 | 0.615 | 0.529 | 0.15 | 0.17 | – | – | – |
| O=c1c(NCCCS(=O)(=O)O)c(Nc2ccc(C(F)(F)F)cc2)c1=O [SSA 4] | > 1.5 mM | > 1.5 mM | 0.948 | 0.675 | 0.574 mM | > 1.5 | > 1.5 | 1.18 | 0.95 mM | 0.91 mM | 1.02 | 0.396 | 0.341 | 0.288 | 0.218 | 151 ± 5 | 73 ± 14 | 150 ± 8 |
| O=C(O)CNc1c(Nc2ccc(C(F)(F)F)cc2)c(=O)c1=O [SSA 5] | > 1.5 mM | 0.302 mM | 0.129 | 0.1 | 0.234 mM | > 1.5 | > 1.5 | 0.683 | 0.54 mM | 0.429 mM | > 1.5 | 0.641 | 0.13 | 0.088 | 0.061 | 146 ± 4 | 106 ± 7 | 152 ± 6 |

— PMC12169104, “Towards the development of supramolecular self-associating amphiphiles as antibiofilm agents against Pseudomonas aeruginosa and Candida albicans biofilms” (Journal of Materials Chemistry. B, 2025)
